Assay results taken from the CheMixHub viscosity set.

Assay: xn = mol fraction of the nth substance listed

CCCCCCCCCCCCCC[P+](CCCCCC)(CCCCCC)CCCCCC.c1c[n-]nn1 + CCCCn1cc[n+](C)c1.O=S(=O)([N-]S(=O)(=O)C(F)(F)F)C(F)(F)F
viscosity [mPa·s], 100 kPa
Conditions | 293.15 K | 298.15 K | 303.15 K | 308.15 K | 313.15 K | 318.15 K | 323.15 K
x1 = 0.1 | 98 | 77 | 61 | 49 | – | – | –
x1 = 0.2 | 164 | 123 | 96 | 76 | 62 | 50 | –
x1 = 0.278 | 242 | 178 | 135 | 107 | 84 | 68 | 56
x1 = 0.612 | 602 | 428 | 311 | 231 | 174 | 135 | 107
x1 = 0.699 | 663 | 468 | 339 | 252 | 190 | 147 | 115
x1 = 0.8 | 723 | 507 | 368 | 273 | 205 | 158 | 125
x1 = 0.9 | 685 | 486 | 353 | 263 | 199 | 154 | 123

CCC(=O)O + CCCO
308.15 K, 101 kPa
Conditions | viscosity [mPa·s]
x1 = 0.0416 | 1.42
x1 = 0.084 | 1.443
x1 = 0.1244 | 1.439
x1 = 0.1683 | 1.368
x1 = 0.2579 | 1.351
x1 = 0.3504 | 1.328
x1 = 0.4481 | 1.289
x1 = 0.5489 | 1.242
x1 = 0.6538 | 1.178
x1 = 0.7644 | 1.096
x1 = 0.8223 | 1.055
x1 = 0.8798 | 1.006
x1 = 0.9384 | 0.9669

O=C(O)c1ccccc1O + CCCO
viscosity [mPa·s]
Conditions | 308.15 K | 313.15 K | 318.15 K | 323.15 K
101 kPa, x1 = 0.133 | 2.13 | – | – | 1.51
101 kPa, x1 = 0.16 | 2.236 | – | – | 1.602
101 kPa, x1 = 0.179 | 2.427 | – | – | 1.69
101 kPa, x1 = 0.191 | 2.4 | – | – | 1.722
101.33 kPa, x1 = 0.16 | 2.236 | 2.012 | 1.791 | 1.602
101.33 kPa, x1 = 0.19 | – | 2.17 | 1.929 | 1.722

CCC(=O)O + CCO
308.15 K, 101 kPa
Conditions | viscosity [mPa·s]
x1 = 0.0674 | 1.035
x1 = 0.1373 | 1.062
x1 = 0.2156 | 1.095
x1 = 0.2983 | 1.125
x1 = 0.3898 | 1.151
x1 = 0.4885 | 1.167
x1 = 0.5987 | 1.16
x1 = 0.7173 | 1.119
x1 = 0.7834 | 1.081
x1 = 0.8532 | 1.043
x1 = 0.9225 | 0.9581

Nc1cccc(Cl)c1 + CCOCCO
303.15 K, 101 kPa
Conditions | viscosity [mPa·s]
x1 = 0.0966 | 2.028
x1 = 0.1696 | 2.159
x1 = 0.2725 | 2.333
x1 = 0.3613 | 2.473
x1 = 0.4791 | 2.643
x1 = 0.5648 | 2.755
x1 = 0.68 | 2.897
x1 = 0.7804 | 3.008
x1 = 0.8884 | 3.121

CC(=O)CCC(=O)O + CC[N+](CC)(CC)CC.[Br-]
101 kPa, x1 = 0.75
Conditions | viscosity [mPa·s]
293.15 K | 149
303.15 K | 76.98
313.15 K | 42.42
323.15 K | 28.81

CCC(=O)O + CCc1ccccc1
308.15 K, 101.33 kPa
Conditions | viscosity [mPa·s]
x1 = 0.1393 | 0.5916
x1 = 0.2634 | 0.6031
x1 = 0.3813 | 0.6196
x1 = 0.4881 | 0.6386
x1 = 0.5891 | 0.6621
x1 = 0.6835 | 0.6881
x1 = 0.7694 | 0.721
x1 = 0.8518 | 0.7666
x1 = 0.9275 | 0.8175

CCC(=O)O + CO
308.15 K, 101 kPa
Conditions | viscosity [mPa·s]
x1 = 0.0467 | 0.5336
x1 = 0.0975 | 0.5843
x1 = 0.157 | 0.6175
x1 = 0.2234 | 0.6789
x1 = 0.3021 | 0.7413
x1 = 0.3923 | 0.8094
x1 = 0.5024 | 0.9055
x1 = 0.6344 | 0.9763
x1 = 0.7111 | 1.021
x1 = 0.7964 | 0.9955
x1 = 0.8919 | 0.9369

O=C(O)c1ccccc1O + CO
viscosity [mPa·s]
Conditions | 308.15 K | 313.15 K | 318.15 K | 323.15 K
101 kPa, x1 = 0.13 | 1.049 | – | – | 0.8273
101 kPa, x1 = 0.14 | 1.086 | – | – | 0.8572
101 kPa, x1 = 0.15 | 1.118 | – | – | 0.8818
101 kPa, x1 = 0.17 | 1.262 | – | – | 0.9692
101.33 kPa, x1 = 0.13 | 1.049 | 0.9732 | 0.8932 | 0.8273
101.33 kPa, x1 = 0.15 | 1.118 | 1.036 | 0.9552 | 0.8818

CC12CCC(CC1)C(C)(C)O2 + COC(C)(C)C
298.15 K, 101.33 kPa
Conditions | viscosity [mPa·s]
x2 = 0.039 | 2.365
x2 = 0.1663 | 1.833
x2 = 0.2659 | 1.491
x2 = 0.379 | 1.188
x2 = 0.4562 | 1.02
x2 = 0.5768 | 0.7958
x2 = 0.6621 | 0.6632
x2 = 0.7385 | 0.5702
x2 = 0.8408 | 0.4604
x2 = 0.902 | 0.4049
x2 = 0.9701 | 0.3547

Nc1cccc(Cl)c1 + COCCO
303.15 K, 101 kPa
Conditions | viscosity [mPa·s]
x1 = 0.0687 | 2.116
x1 = 0.1403 | 2.27
x1 = 0.238 | 2.434
x1 = 0.3592 | 2.586
x1 = 0.4287 | 2.72
x1 = 0.5233 | 2.844
x1 = 0.6416 | 2.949
x1 = 0.7401 | 3.05
x1 = 0.8794 | 3.143

CCCCCCCCCCCCCC[P+](CCCCCC)(CCCCCC)CCCCCC.c1c[n-]nn1 + COCCOCCOCCOCCOC
viscosity [mPa·s], 100 kPa
Conditions | 293.15 K | 298.15 K | 303.15 K | 308.15 K | 313.15 K | 318.15 K | 323.15 K
x1 = 0.499 | 80 | 65 | 53 | – | – | – | –
x1 = 0.602 | 118 | 93 | 74 | 62 | 51 | – | –
x1 = 0.69 | 172 | 134 | 106 | 85 | 69 | 57 | –
x1 = 0.793 | 250 | 190 | 147 | 116 | 93 | 76 | 63
x1 = 0.878 | 358 | 266 | 201 | 156 | 123 | 99 | 81
x1 = 0.917 | 400 | 294 | 221 | 170 | 133 | 106 | 86

CC(=O)CCC(=O)O + C[N+](C)(C)CCO.[Cl-]
viscosity [mPa·s]
Conditions | 293.15 K | 298.15 K | 303.15 K | 308.15 K | 313.15 K | 318.15 K | 323.15 K
100 kPa, x2 = 0.33 | 320.6 | 226.8 | 164.5 | 122.5 | 93.62 | 72.54 | 57.48
101 kPa, x1 = 0.75 | 134.2 | – | 79.14 | – | 47.76 | – | 31.29
101 kPa, x2 = 0.25 | – | 132.9 | – | – | – | 46.9 | –
101 kPa, x2 = 0.333 | – | 207.8 | – | – | – | 68 | –

CCC(=O)O + C[N+](C)(C)CCO.[Cl-]
101 kPa, x2 = 0.333
Conditions | viscosity [mPa·s]
293.15 K | 70.98
298.15 K | 55.91
303.15 K | 44.79
308.15 K | 36.45
313.15 K | 30.06
318.15 K | 25.09
323.15 K | 21.19

CC12CCC(CC1)C(C)(C)O2 + Cc1ccc(O)cc1
viscosity [mPa·s], 101 kPa
Conditions | x1 = 0.065 | x1 = 0.1353 | x1 = 0.2115 | x1 = 0.2943 | x1 = 0.3849 | x1 = 0.4841 | x1 = 0.5935 | x1 = 0.7145 | x1 = 0.8492
303.15 K | 10.05 | 10.4 | 10.3 | 9.855 | 8.969 | 7.588 | 6 | 4.552 | 3.36
308.15 K | 8.061 | 8.368 | 8.359 | 8.056 | 7.332 | 6.325 | 5.03 | 3.799 | 2.854
313.15 K | 6.612 | 6.841 | 6.808 | 6.617 | 6.12 | 5.364 | 4.313 | 3.244 | 2.467

CC12CCC(CC1)C(C)(C)O2 + Cc1cccc(O)c1
viscosity [mPa·s], 101 kPa
Conditions | x1 = 0.065 | x1 = 0.1352 | x1 = 0.2114 | x1 = 0.2943 | x1 = 0.3848 | x1 = 0.4841 | x1 = 0.5934 | x1 = 0.7145 | x1 = 0.8492
303.15 K | 10.48 | 10.69 | 10.47 | 9.802 | 8.746 | 7.564 | 6.28 | 4.91 | 3.559
308.15 K | 8.331 | 8.539 | 8.426 | 7.994 | 7.155 | 6.222 | 5.16 | 4.043 | 3.002
313.15 K | 6.756 | 6.947 | 6.878 | 6.474 | 5.892 | 5.161 | 4.295 | 3.348 | 2.505
